Assay results taken from patent US20240277746A1, “OPHTHALMIC NANO-DISPERSION COMPOSITION, A METHOD OF PREPARATION THEREOF, AND FORMULATION FOR CORNEAL EPITHELIAL WOUND HEALING” (THE UNIVERSITY OF JORDAN, priority 2021, published 2024).

Columns and labels:
[1] = test system: rabbit corneas subjected to epithelial debridement; test: Corneal epithelial healing in rabbit eyes; type: in vivo
Procedure: Rabbits were used to evaluate the ability of formulations to accelerate corneal epithelial wound healing in-vivo. Xylazine was used to induce analgesia in the rabbits with intramuscular injections of about 6 mg/kg. Proparacaine 0.5% weight/volume eye drops were also used as supplemental analgesia.
The eyes were kept open during the depredation using a speculum.
Using cotton buds, about 10% of alcohol was applied to the central regions of rabbit corneas for about 20 seconds. Then epithelia within an 8 mm diameter circle in were mechanically scraped using a blunt spatula. After that, eyes were washed several times using normal saline to remove scraped epithelial cells and residual alcohol that can induce corneal irritations.
The rabbits were divided into five treatment groups. Each group contained four animals. Right eyes were selected to receive normal saline while left eyes were assigned to receive the treatment.
The treatment was either about 200 μl (4 drops) of 5% ascorbic acid solution in 0.2 N sodium phosphate buffer pH 7.4, blank oily eye drops, AA as oily eye drops and AA-2G as oily eye drops.
The treatments were administered topically to the wounded eyes, along with topical ofloxacin antibiotic drops (Oflox, Allergan, Inc.), immediately following surgery and 6, 12, 24, 30, 36, 48, 54, 60 and 72-hour post-surgery.
Throughout the healing process, rabbits were closely monitored for evidence of distress or infection, and epithelial wound closure was examined at each dosing time point by applying about 50 μL of 0.25% topical fluorescein eye drops to the injured cornea and imaging the wound under cobalt blue light.
The area of each epithelial defect was measured using “ImageJ”, an image analysis software. Percent healing (“H %”) was calculated as a percentage of the initial wound area. According to the following equation: […]
Wherein Ai indicates the wound area at a given time point and A0 indicates the initial wound area.

[2] = Corneal accumulation study (AA-2G entrapped within the corneal tissue after the permeation study); type: in vitro ADME, sheep; settings: Qr6 hr; AA-2G in corneal tissue; mean ± SD, n = 3
Procedure: (§1) In vitro permeation and accumulation studies were performed on freshly excised sheep cornea obtained from a local slaughterhouse within an hour after the slaughter of the animals.
To quantify the amount of AA-2G entrapped within the corneal tissue after finishing the in vitro permeation study, the diffusion cells were dismantled, the corneas were quickly washed with normal saline to remove the surface-attached AA-2G, then the diffusional areas were cut out and digested using about 0.5 ml of 0.5 M NaOH for about 12 hours at about 37° C. in a shaker incubator to obtain a solution. After that, about 0.5 ml of ethanol and about 1 ml of acetonitrile were added to this solution to precipitate the dissolved proteins. The samples were then centrifuged at about 8000 rpm for about 10 minutes. The supernatants were taken and diluted with the mobile phase for HPLC analysis.

[3] = Transcorneal permeation study, Franz-type diffusion cells; type: in vitro ADME, sheep; settings: AA-2G, mean ± SD, n = 3
Procedure: as §1
After the preparation of excised cornea, it was directly fixed between the donor and receptor compartments of Franz-type diffusion cells in such a way that its epithelial surface was facing the donor compartment and the endothelial surface was facing the receptor compartment.
The diameter of the diffusion area of the diffusion cells was 11 mm, producing an effective diffusion area of about 0.95 cm^2. The receptor compartment was filled with about 12 ml of normal saline solution stirred using teflon-coated magnetic stirring bars and maintained at a temperature of about 37° C. by circulating warm water through the water jacket around the receptor compartment. Special care was taken to expel air bubbles from the receptor fluid.
The permeation study was carried out by placing about 1 ml of either the prepared AA-2G loaded S/O nano-dispersion, AA-2G solution or normal saline on top of the cornea in the donor compartment.
An aliquot (about 0.3 ml) of the receptor fluid was withdrawn at about 0.5, 1, 1.5, 2, 3, 4, and 6 hours after beginning the experiment and replaced by an equal volume of fresh receptor solution. The receptor fluid content of AA-2G was determined quantitatively using the High-performance liquid chromatography (“HPLC”) method.

Compound | relative healing rate (normalized to normal saline) ([1]; 6-hour) | relative healing rate (normalized to normal saline) ([1]; 12-hours) | % healing ([1]; after 6 hours, topical, rabbit, n=4) [%] | wound-healing rate enhancement vs control (normal saline) ([1]; first 6 hours) | effect on corneal epithelial healing ([1]; rabbit eyes, topical, vs normal saline) | Amount accumulated per unit area Qr (accumulation) [2] [μg/cm2] | Amount permeated per unit area Qt ([3]; Time 0.5 hr) [μg/cm2] | Amount permeated per unit area Qt ([3]; Time 1 hr) [μg/cm2] | Amount permeated per unit area Qt ([3]; Time 1.5 hr) [μg/cm2] | Amount permeated per unit area Qt ([3]; Time 2 hr) [μg/cm2] | Amount permeated per unit area Qt ([3]; Time 3 hr) [μg/cm2] | Amount permeated per unit area Qt ([3]; Time 4 hr) [μg/cm2] | Amount permeated per unit area Qt ([3]; Time 6 hr) [μg/cm2]
O=C1O[C@H]([C@@H](O)CO)C(O)=C1O [AA solution, ascorbic acid] | 3.28 | 1.39 | 22.9 | up to 3.28 folds | significantly increased | – | – | – | – | – | – | – | –
O=C1O[C@H]([C@@H](O)CO)C(O)=C1O[C@H]1O[C@H](CO)[C@@H](O)[C@H](O)[C@H]1O [AA-2G solution, Ascorbyl glucoside] | – | – | – | – | – | 30.91 ± 1.04 | 0.00 | 0.00 | 0.00 | 0.00 | 4.56 ± 3.29 | 11.21 ± 3.67 | 41.02 ± 0.21
